The record followed here is patent US7169789B2 (Kirin Beer Kabushiki Kaisha, priority 1999, dated 2007).

Molecules are shown by their SMILES. Bounds are passed on as bounds.

In one test the target is T1, human KDR (Homo sapiens, UniProt P35968).
T1 construct: expressed in transfected cells; host or cells: NIH 3T3 cells (Sawano A et al., Cell Growth & Differentiation 7, 213-221 (1996))
The test can be described thus: Inhibitory activity against KDR phosphorylation by ELISA. The format is cell-based. To be noted: NIH 3T3 cells transfected with human KDR, VEGF 100 ng/ml.

Another test concerns Human glioma cells GL07. Kind of test: Antitumor effect on human glioma cells (GL07) transplanted into nude mice. Type of test: in vivo. To be noted: Mus musculus, Glioma cell, 216 h, GL07, oral, 20 mg/kg once a day for 9 days, read-out: TGIR, % (tumor growth inhibition rate). In short, it runs like this:
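GL07 xenografts in nude mice, grouped (n=4) at ~100 mm^3 tumor volume. Test compound 20 mg/kg p.o. or i.p. once daily for 9 days; vehicle controls. TGIR = (1−Tx/Cx)×100 from tumor volumes normalized to day-of-start volume = 1.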

T1 sequence (P35968 20-1356): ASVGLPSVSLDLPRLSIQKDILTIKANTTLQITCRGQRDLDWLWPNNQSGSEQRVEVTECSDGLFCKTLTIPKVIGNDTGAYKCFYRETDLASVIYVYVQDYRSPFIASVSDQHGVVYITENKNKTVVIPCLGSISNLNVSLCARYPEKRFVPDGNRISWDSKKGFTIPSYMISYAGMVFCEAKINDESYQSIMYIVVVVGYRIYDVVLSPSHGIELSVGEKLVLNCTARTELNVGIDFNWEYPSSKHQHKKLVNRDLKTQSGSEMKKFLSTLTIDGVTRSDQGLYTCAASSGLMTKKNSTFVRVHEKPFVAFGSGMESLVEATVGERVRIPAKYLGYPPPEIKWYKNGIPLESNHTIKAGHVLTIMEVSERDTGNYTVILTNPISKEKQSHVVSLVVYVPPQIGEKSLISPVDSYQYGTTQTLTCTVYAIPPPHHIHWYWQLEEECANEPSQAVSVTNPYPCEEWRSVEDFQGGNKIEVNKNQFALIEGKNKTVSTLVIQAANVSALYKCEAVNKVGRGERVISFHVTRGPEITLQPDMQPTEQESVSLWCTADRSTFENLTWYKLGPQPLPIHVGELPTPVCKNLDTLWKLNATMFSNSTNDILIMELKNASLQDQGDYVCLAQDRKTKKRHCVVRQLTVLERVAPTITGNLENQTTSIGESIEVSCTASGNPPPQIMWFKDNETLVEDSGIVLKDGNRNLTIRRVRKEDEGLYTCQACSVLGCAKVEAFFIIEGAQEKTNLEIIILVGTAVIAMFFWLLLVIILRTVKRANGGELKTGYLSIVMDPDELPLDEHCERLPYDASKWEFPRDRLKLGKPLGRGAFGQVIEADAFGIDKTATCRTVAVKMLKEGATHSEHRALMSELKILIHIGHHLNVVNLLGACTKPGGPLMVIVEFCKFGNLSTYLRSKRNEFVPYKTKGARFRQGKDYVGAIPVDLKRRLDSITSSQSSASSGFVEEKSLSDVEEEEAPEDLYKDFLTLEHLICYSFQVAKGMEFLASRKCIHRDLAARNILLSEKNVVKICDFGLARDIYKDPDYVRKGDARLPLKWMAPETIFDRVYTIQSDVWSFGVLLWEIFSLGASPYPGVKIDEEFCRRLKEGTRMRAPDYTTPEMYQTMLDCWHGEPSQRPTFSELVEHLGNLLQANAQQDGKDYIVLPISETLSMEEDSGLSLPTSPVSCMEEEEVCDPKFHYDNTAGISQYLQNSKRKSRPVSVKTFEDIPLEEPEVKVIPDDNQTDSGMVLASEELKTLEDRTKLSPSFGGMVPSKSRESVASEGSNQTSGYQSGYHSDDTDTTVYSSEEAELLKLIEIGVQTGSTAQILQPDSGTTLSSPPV

`COc1cc2c(Oc3ccc(NC(=O)N(C)C)c(Cl)c3)ncnc2cc1OCCN1CCOCC1` [Example 178, N′-(2-Chloro-4-{[6-methoxy-7-(2-morpholinoethoxy)-4-quinazolinyl]oxy}phenyl)-N,N-dimethylurea]: the IC50 at human KDR was > 1000 nM. The inhibition in vivo at 20 mg/kg in the test on Human glioma cells GL07 turned out to be 28%.

For `COc1cc2c(Oc3cc(C)c(NC(=O)Nc4ccc(F)cc4F)cc3C)ccnc2cc1OCCn1ccnn1` [Example 177, N-(2,4-Difluorophenyl)-N′-[4-({6-methoxy-7-[2-(1H-1,2,3-triazol-1-yl)ethoxy]-4-guinolyl}oxy)-2,5-dimethylphenyl]urea], inhibition at human KDR was half-maximal at 2.3 nM (IC50). Further, the inhibition in vivo at 20 mg/kg in the test on Human glioma cells GL07 worked out at 35%.

With `CCCNC(=O)Nc1ccc(Oc2ccnc3cc(OCCn4ccnc4)c(OC)cc23)cc1Cl` [Example 146, N-[2-chloro-4-(7-{[2-(1H-1-imidazolyl)ethoxy]-6-methoxy-4-quinolyl}oxy)phenyl]-N′-propylurea], on human KDR, the IC50 was determined as 1 nM. Also, in the test on Human glioma cells GL07, the inhibition in vivo at 20 mg/kg was 48%.

Turning to `CCCNC(=O)Nc1ccc(Oc2ncnc3cc(OCCCSc4ccncc4)c(OC)cc23)cc1Cl` [Example 133, N-[2-Chloro-4-({6-methoxy-7-[3-(4-pyridylthio)propoxy]-4-quinazolinyl}oxy)phenyl]-N′-propylurea], the concentration for half-maximal inhibition (IC50) on human KDR is 8.3 nM. In the test on Human glioma cells GL07, the inhibition in vivo at 20 mg/kg was 20%.

On to `CCCNC(=O)Nc1ccc(Oc2ccnc3cc(OCCCN4CCN(C)CC4)c(OC)cc23)cc1Cl` [Example 152, N-[2-chloro-4-(6-methoxy-7-{[3-(4-methylpiperazino)propoxy]-4-quinolyl}oxy)phenyl]-N′-propylurea], for which, at human KDR, the IC50 was 0.8 nM. The inhibition in vivo at 20 mg/kg in the test with Human glioma cells GL07 was determined as 44%.

`CNC(=O)Nc1ccc(Oc2ncnc3cc(OCCCN4CCCCC4)c(OC)cc23)cc1Cl` [Example 184, N-(2-chloro-4-{[6-methoxy-7-(3-piperidinopropoxy)-4-quinazolinyl]oxy}phenyl)-N′-methylurea]: 0.2 nM corresponded to half-maximal inhibition against human KDR (IC50). In the test with Human glioma cells GL07, the inhibition in vivo at 20 mg/kg came to 48%.

Regarding `CCCN(CCC)C(=O)Nc1ccc(Oc2ncnc3cc(OC)c(OC)cc23)cc1Cl` [Example 113, N′-{2-Chloro-4-[(6,7-dimethoxy-4-quinazolinyl)oxy]phenyl}-N,N-dipropylurea], on human KDR, the IC50 was > 1000 nM. Moreover, in the test on Human glioma cells GL07, the inhibition in vivo at 20 mg/kg was determined as 61%.

For `CCCNC(=O)Nc1ccc(Oc2ccnc3cc(OCCN4CCN(C)CC4)c(OC)cc23)cc1Cl` [Example 148, N-[2-chloro-4-(6-methoxy-7-{[2-(4-methylpiperazino)ethoxy]-4-quinolyl}oxy)phenyl]-N′-propylurea], the IC50 against human KDR was found to be 15 nM. Besides, the inhibition in vivo at 20 mg/kg in the test with Human glioma cells GL07 stood at 54%.

`CCCNC(=O)Nc1ccc(Oc2ncnc3cc(OCCO)c(OC)cc23)cc1Cl` [Example 122, N-(2-Chloro-4-{[7-(2-hydroxyethoxy)-6-methoxy-4-quinazolinyl]oxy}phenyl)-N′-propylurea] displayed an IC50 against human KDR of 5.8 nM. Further, in the test on Human glioma cells GL07, the inhibition in vivo at 20 mg/kg stood at 21%.

On to `CCCNC(=O)Nc1ccc(Oc2ncnc3cc(OC)c(OCCN4CCN(C)CC4)cc23)cc1Cl` [Example 136, N-[2-Chloro-4-({7-methoxy-6-[2-(4-methylpiperazino)ethoxy]-4-quinazolinyl}oxy)phenyl]-N′-propylurea], for which the concentration for half-maximal inhibition (IC50) against human KDR is 160 nM. The inhibition in vivo at 20 mg/kg in the test on Human glioma cells GL07 worked out at 23%.

At human KDR, `CCCNC(=O)Nc1ccc(Oc2ncnc3cc(OCCCN4CCOCC4)c(OC)cc23)cc1Cl` [Example 119, N-(2-chloro-4-{[6-methoxy-7-(3-morpholinopropoxy)-4-quinazolinyl]oxy}phenyl)-N′-propylurea] registered an IC50 of 3.6 nM. The inhibition in vivo at 20 mg/kg in the test with Human glioma cells GL07 stood at 40%.

In the case of `CCCNC(=O)Nc1ccc(Oc2ccnc3cc(OCCCn4ccnn4)c(OC)cc23)cc1Cl` [Example 153, N-[2-chloro-4-(6-methoxy-7-{[3-(1H-1,2,3-triazol-1-yl)propoxy]-4-quinolyl}oxy)phenyl]-N′-propylurea], the IC50 against human KDR was 1.5 nM. Further, the inhibition in vivo at 20 mg/kg in the test with Human glioma cells GL07 amounted to 53%.
